Laboratory results reported in patent US4757133A, “Physiologically active peptide” (Eisai Co., Ltd., priority 1986, dated 1988).
Peptide text beside a SMILES is read from it.

system: smooth muscle of a bronchus; experiment: Relaxation of muscle of bronchus removed from guinea pig (histamine-contracted tracheal chain, four-point assay); conditions: isolated guinea pig trachea chain, 6.5×10^-6 M histamine in Krebs solution at 37° C.; samples at 10^-5 M; area value of VIP-NH2 taken as 100%
Excerpt: A. Determination on Relaxation of Muscle of Bronchus Removed from Guinea Pig:
The juglar vein of a male guinea pig weighing 300 g or more is cut, causing the guinea pig to be bled to death. The guinea pig undergoes thoracotomy. Immediately after the thoracotomy, 3 cm of the trachea is taken out. The trachea is immediately put in a Krebs solution. It is then cut into seven equal rings, and the cartilages are connected to one another with a cotton yarn to form a chain. Subsequently, the smooth muscle parts and cartilages opposite them are cut, so that the smooth muscle parts can be connected to one another. The preparation thus prepared is placed in an isothermic glass cell having an internal capacity of about 7 ml and suspended from above. The lower part of the preparation is fixed, while the upper part is connected to an isometric transducer, to which 0.5 g of a load has been applied, in order to determine the relaxation reaction. Sufficient amounts of 95% oxygen and 5% carbon dioxide gas are blown into the preparation. Further, a Krebs solution of 37° C. containing 6.5×10^-6 M histamine is dropped on the preparation from above at a flow rate of 3.3 ml/min. The relaxation reaction takes place to an extent proportional to the amount of a sample added to the dropped solution. By utilizing this relationship, the relaxation activity against bronchial smooth muscle with respect to the substance of the present invention is compared with that of VIP-NH2. VIP-NH2 is used at a concentration of 10^-5 M and dropped in amounts of 40 μl and 80 μl. The substance of the present invention is also used at a concentration of 10^-5 M and dropped in amounts of 10 μl and 20 μl. The value of the area (height×time) in relaxation of each case is determined. The specific activities are obtained by taking the area value of VIP-NH2 as 100% and determining the relative ratio of the area value of each case. Thus, the relaxation reactions are compared by the four-point assay method, with respect to the above-mentioned determination method, reference may be made to the following articles (e) and (f):
(e) W. L. M. Perry, Pharmacological Experiments on Isolated Preparations: E & S Livingstone LTD. 1968; and
(f) Castillo, De Beer, J. Phamac. Exp. Ther. 90, 104 (1947).

SMILES	A: specific activity (%) obtained by method A (relaxation area value relative to VIP-NH2)
CC[C@H](C)[C@H](NC(=O)[C@H](CO)NC(=O)[C@H](CC(N)=O)NC(=O)[C@H](CC(C)C)NC(=O)[C@H](Cc1ccc(O)cc1)NC(=O)[C@H](CCCCN)NC(=O)[C@H](CCCCN)NC(=O)[C@@H](NC(=O)[C@H](C)NC(=O)[C@H](CCSC)NC(=O)[C@H](CCC(N)=O)NC(=O)[C@H](CCCCN)NC(=O)[C@H](CCCNC(=N)N)NC(=O)[C@H](CC(C)C)NC(=O)[C@H](CCCNC(=N)N)NC(=O)[C@@H](NC(=O)[C@H](Cc1ccc(O)cc1)NC(=O)[C@H](CC(N)=O)NC(=O)[C@H](CC(=O)O)NC(=O)[C@@H](NC(=O)[C@H](Cc1ccccc1)NC(=O)[C@@H](NC(=O)[C@H](C)NC(=O)[C@H](CC(=O)O)NC(=O)[C@H](CO)NC(=O)[C@@H](N)Cc1c[nH]cn1)C(C)C)[C@@H](C)O)[C@@H](C)O)C(C)C)C(=O)N[C@@H](CC(C)C)C(=O)N[C@@H](CC(N)=O)C(=O)NCC(=O)N[C@@H](CCCNC(=N)N)C(=O)O [X=Met Y=Arg-OH]	220%
CC[C@H](C)[C@H](NC(=O)[C@H](CO)NC(=O)[C@H](CC(N)=O)NC(=O)[C@H](CC(C)C)NC(=O)[C@H](Cc1ccc(O)cc1)NC(=O)[C@H](CCCCN)NC(=O)[C@H](CCCCN)NC(=O)[C@@H](NC(=O)[C@H](C)NC(=O)[C@H](CC(C)C)NC(=O)[C@H](CCC(N)=O)NC(=O)[C@H](CCCCN)NC(=O)[C@H](CCCNC(=N)N)NC(=O)[C@H](CC(C)C)NC(=O)[C@H](CCCNC(=N)N)NC(=O)[C@@H](NC(=O)[C@H](Cc1ccc(O)cc1)NC(=O)[C@H](CC(N)=O)NC(=O)[C@H](CC(=O)O)NC(=O)[C@@H](NC(=O)[C@H](Cc1ccccc1)NC(=O)[C@@H](NC(=O)[C@H](C)NC(=O)[C@H](CC(=O)O)NC(=O)[C@H](CO)NC(=O)[C@@H](N)Cc1c[nH]cn1)C(C)C)[C@@H](C)O)[C@@H](C)O)C(C)C)C(=O)N[C@@H](CC(C)C)C(=O)N[C@@H](CC(N)=O)C(=O)NCC(=O)N[C@@H](CCCCN)C(=O)O [X=Leu Y=Lys-OH] (H-HSDAVFTDNYTRLRKQLAVKKYLNSILNGK-OH)	410%
CC[C@H](C)[C@H](NC(=O)[C@H](CO)NC(=O)[C@H](CC(N)=O)NC(=O)[C@H](CC(C)C)NC(=O)[C@H](Cc1ccc(O)cc1)NC(=O)[C@H](CCCCN)NC(=O)[C@H](CCCCN)NC(=O)[C@@H](NC(=O)[C@H](C)NC(=O)[C@H](CC(C)C)NC(=O)[C@H](CCC(N)=O)NC(=O)[C@H](CCCCN)NC(=O)[C@H](CCCNC(=N)N)NC(=O)[C@H](CC(C)C)NC(=O)[C@H](CCCNC(=N)N)NC(=O)[C@@H](NC(=O)[C@H](Cc1ccc(O)cc1)NC(=O)[C@H](CC(N)=O)NC(=O)[C@H](CC(=O)O)NC(=O)[C@@H](NC(=O)[C@H](Cc1ccccc1)NC(=O)[C@@H](NC(=O)[C@H](C)NC(=O)[C@H](CC(=O)O)NC(=O)[C@H](CO)NC(=O)[C@@H](N)Cc1c[nH]cn1)C(C)C)[C@@H](C)O)[C@@H](C)O)C(C)C)C(=O)N[C@@H](CC(C)C)C(=O)N[C@@H](CC(N)=O)C(=O)NCC(=O)N[C@@H](CCCCN)C(=O)N[C@@H](CCCNC(=N)N)C(=O)O [X=Leu Y=Lys-Arg-OH] (H-HSDAVFTDNYTRLRKQLAVKKYLNSILNGKR-OH)	410%
CC[C@H](C)[C@H](NC(=O)[C@H](CO)NC(=O)[C@H](CC(N)=O)NC(=O)[C@H](CC(C)C)NC(=O)[C@H](Cc1ccc(O)cc1)NC(=O)[C@H](CCCCN)NC(=O)[C@H](CCCCN)NC(=O)[C@@H](NC(=O)[C@H](C)NC(=O)[C@H](CCSC)NC(=O)[C@H](CCC(N)=O)NC(=O)[C@H](CCCCN)NC(=O)[C@H](CCCNC(=N)N)NC(=O)[C@H](CC(C)C)NC(=O)[C@H](CCCNC(=N)N)NC(=O)[C@@H](NC(=O)[C@H](Cc1ccc(O)cc1)NC(=O)[C@H](CC(N)=O)NC(=O)[C@H](CC(=O)O)NC(=O)[C@@H](NC(=O)[C@H](Cc1ccccc1)NC(=O)[C@@H](NC(=O)[C@H](C)NC(=O)[C@H](CC(=O)O)NC(=O)[C@H](CO)NC(=O)[C@@H](N)Cc1c[nH]cn1)C(C)C)[C@@H](C)O)[C@@H](C)O)C(C)C)C(=O)N[C@@H](CC(C)C)C(=O)N[C@@H](CC(N)=O)C(=O)NCC(=O)N[C@@H](CCCCN)C(N)=O [X=Met Y=Lys-NH2]	140%
CC[C@H](C)[C@H](NC(=O)[C@H](CO)NC(=O)[C@H](CC(N)=O)NC(=O)[C@H](CC(C)C)NC(=O)[C@H](Cc1ccc(O)cc1)NC(=O)[C@H](CCCCN)NC(=O)[C@H](CCCCN)NC(=O)[C@@H](NC(=O)[C@H](C)NC(=O)[C@H](CCSC)NC(=O)[C@H](CCC(N)=O)NC(=O)[C@H](CCCCN)NC(=O)[C@H](CCCNC(=N)N)NC(=O)[C@H](CC(C)C)NC(=O)[C@H](CCCNC(=N)N)NC(=O)[C@@H](NC(=O)[C@H](Cc1ccc(O)cc1)NC(=O)[C@H](CC(N)=O)NC(=O)[C@H](CC(=O)O)NC(=O)[C@@H](NC(=O)[C@H](Cc1ccccc1)NC(=O)[C@@H](NC(=O)[C@H](C)NC(=O)[C@H](CC(=O)O)NC(=O)[C@H](CO)NC(=O)[C@@H](N)Cc1c[nH]cn1)C(C)C)[C@@H](C)O)[C@@H](C)O)C(C)C)C(=O)N[C@@H](CC(C)C)C(=O)N[C@@H](CC(N)=O)C(=O)NCC(=O)N[C@@H](CCCCN)C(=O)O [X=Met Y=Lys-OH]	300%
CC[C@H](C)[C@H](NC(=O)[C@H](CO)NC(=O)[C@H](CC(N)=O)NC(=O)[C@H](CC(C)C)NC(=O)[C@H](Cc1ccc(O)cc1)NC(=O)[C@H](CCCCN)NC(=O)[C@H](CCCCN)NC(=O)[C@@H](NC(=O)[C@H](C)NC(=O)[C@H](CCSC)NC(=O)[C@H](CCC(N)=O)NC(=O)[C@H](CCCCN)NC(=O)[C@H](CCCNC(=N)N)NC(=O)[C@H](CC(C)C)NC(=O)[C@H](CCCNC(=N)N)NC(=O)[C@@H](NC(=O)[C@H](Cc1ccc(O)cc1)NC(=O)[C@H](CC(N)=O)NC(=O)[C@H](CC(=O)O)NC(=O)[C@@H](NC(=O)[C@H](Cc1ccccc1)NC(=O)[C@@H](NC(=O)[C@H](C)NC(=O)[C@H](CC(=O)O)NC(=O)[C@H](CO)NC(=O)[C@@H](N)Cc1c[nH]cn1)C(C)C)[C@@H](C)O)[C@@H](C)O)C(C)C)C(=O)N[C@@H](CC(C)C)C(=O)N[C@@H](CC(N)=O)C(=O)NCC(=O)O [X=Met Y=OH]	70%
CC[C@H](C)[C@H](NC(=O)[C@H](CO)NC(=O)[C@H](CC(N)=O)NC(=O)[C@H](CC(C)C)NC(=O)[C@H](Cc1ccc(O)cc1)NC(=O)[C@H](CCCCN)NC(=O)[C@H](CCCCN)NC(=O)[C@@H](NC(=O)[C@H](C)NC(=O)[C@H](CC(C)C)NC(=O)[C@H](CCC(N)=O)NC(=O)[C@H](CCCCN)NC(=O)[C@H](CCCNC(=N)N)NC(=O)[C@H](CC(C)C)NC(=O)[C@H](CCCNC(=N)N)NC(=O)[C@@H](NC(=O)[C@H](Cc1ccc(O)cc1)NC(=O)[C@H](CC(N)=O)NC(=O)[C@H](CC(=O)O)NC(=O)[C@@H](NC(=O)[C@H](Cc1ccccc1)NC(=O)[C@@H](NC(=O)[C@H](C)NC(=O)[C@H](CC(=O)O)NC(=O)[C@H](CO)NC(=O)[C@@H](N)Cc1c[nH]cn1)C(C)C)[C@@H](C)O)[C@@H](C)O)C(C)C)C(=O)N[C@@H](CC(C)C)C(=O)N[C@@H](CC(N)=O)C(=O)NCC(=O)N[C@@H](CCCCN)C(N)=O [X=Leu Y=Lys-NH2] (H-HSDAVFTDNYTRLRKQLAVKKYLNSILNGK-NH2)	300%
CC[C@H](C)[C@H](NC(=O)[C@H](CO)NC(=O)[C@H](CC(N)=O)NC(=O)[C@H](CC(C)C)NC(=O)[C@H](Cc1ccc(O)cc1)NC(=O)[C@H](CCCCN)NC(=O)[C@H](CCCCN)NC(=O)[C@@H](NC(=O)[C@H](C)NC(=O)[C@H](CCSC)NC(=O)[C@H](CCC(N)=O)NC(=O)[C@H](CCCCN)NC(=O)[C@H](CCCNC(=N)N)NC(=O)[C@H](CC(C)C)NC(=O)[C@H](CCCNC(=N)N)NC(=O)[C@@H](NC(=O)[C@H](Cc1ccc(O)cc1)NC(=O)[C@H](CC(N)=O)NC(=O)[C@H](CC(=O)O)NC(=O)[C@@H](NC(=O)[C@H](Cc1ccccc1)NC(=O)[C@@H](NC(=O)[C@H](C)NC(=O)[C@H](CC(=O)O)NC(=O)[C@H](CO)NC(=O)[C@@H](N)Cc1c[nH]cn1)C(C)C)[C@@H](C)O)[C@@H](C)O)C(C)C)C(=O)N[C@@H](CC(C)C)C(=O)N[C@@H](CC(N)=O)C(=O)NCC(=O)N[C@@H](CCCCN)C(=O)N[C@@H](CCCNC(=N)N)C(=O)O [X=Met Y=Lys-Arg-OH]	460%
